Test results reported in US10544130B2, “Metallo-beta-lactamase inhibitors” (priority 2015, dated 2020).
Values after ≈ are worked out from the molar mass of the structure shown. Read-outs that look alike come from different tables or passages of the source.

How the values were obtained:
[1] = test system: Pseudomonas aeruginosa PAO1 MB9799 (efflux-, IMP-1); assay type: cell-based; details: C, D serine β-lactamase inhibitor closely related to relebactam; for P. aeruginosa expressing IMP-1, efflux − (MB9799) MITC95: restores susceptibility to imipenem at 2 μg/mL in the presence of a class A, efflux − strain MB9799
Description: The strain background was Pseudomonas aeruginosa PAO1.
The strain set was then used as a pair to determine the effect of metallo-β-lactamase inhibitors of Formula I on the MIC of imipenem and/or ceftazidime. A fixed concentration of antibiotic was included in standard microbroth MIC tests, usually at the CLSI (Clinical and Laboratory Standards Institute) breakpoint concentration. A fixed amount of a class A/C beta-lactamase inhibitor was also included to inhibit the resident Pseudomonas AmpC enzyme. A serial titration of the metallo-β-lactamase inhibitor was included and the concentration of metallo-β-lactamase inhibitor which restores susceptibility of the strain to the included antibiotic was recorded. That concentration of metallo-β-lactamase inhibitor was then compared between the two strains to determine the fold difference between the efflux + (MB9798) and efflux − (MB9799) strains. This was taken as an indication of the extent to which the MBLi is subject to efflux.

[2] = test system: Pseudomonas aeruginosa PAO1 MB9798 (efflux+, IMP-1); details: for Efflux ratio: ratio MITC95 PA 9798/MITC95 PA 9799; for P. aeruginosa expressing IMP-1, efflux + (MB9798) MITC95: restores susceptibility to imipenem at 2 μg/mL in the presence of a class A
Outline: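 Isogenic PAO1 pair (efflux+ MB9798, efflux− MB9799, both IMP-1) tested by microbroth MIC with fixed imipenem and/or ceftazidime, usually at CLSI breakpoint, plus fixed class A/C inhibitor against AmpC. MBL inhibitor titrated; concentration restoring susceptibility recorded and fold difference between strains taken as efflux extent.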

[3] = test system: Serratia marcescens expressing IMP-1 (CL5741); assay type: cell-based; details: with imipenem 1 μg/ml; 95% inhibition of bacterial growth
Outline: (§1)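 Growth read by absorbance after 22–24 h at 35 °C in CAMHB, with test compound alone or combined with 1 μg/ml imipenem. Inocula came from overnight 35 °C blood-agar colonies, set to a defined OD600 and diluted 1:100. Value is the inhibitor concentration giving synergy.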

[4] = test system: Klebsiella pneumoniae expressing VIM-1 (IHMA599644); assay type: cell-based; details: with imipenem 1 μg/ml; 95% inhibition of bacterial growth
Outline: as §1

[5] = test system: Escherichia coli expressing NDM-1 (CLB30005, CLB30016); assay type: cell-based; details: with imipenem 1 μg/ml; 95% inhibition of bacterial growth
Outline: as §1

IMP-1 = IMP-1 (Serratia marcescens, UniProt P52699); assay type: biochemical; details: CCF2-FA substrate, 2 hours at 25° C.
Sequence of IMP-1 (P52699 whole entry, looked up, species assumed): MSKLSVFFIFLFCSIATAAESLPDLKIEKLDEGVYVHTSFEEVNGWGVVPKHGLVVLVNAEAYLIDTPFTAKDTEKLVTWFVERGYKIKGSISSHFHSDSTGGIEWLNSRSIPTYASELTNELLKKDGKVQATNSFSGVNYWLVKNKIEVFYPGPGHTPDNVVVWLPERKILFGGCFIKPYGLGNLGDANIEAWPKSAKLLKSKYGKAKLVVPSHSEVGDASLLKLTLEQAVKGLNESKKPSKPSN
Protocol: (§2) Enzyme Activity: Determination of IC50
(§3) The Class B enzyme activities were measured in the presence of the test inhibitor in a fluorescence assay against a commercially available substrate consisting of a cephalosporin core linking 7-hydroxycoumarin to fluorescein (CCF2-FA). […] In a 384-well microplate, the test inhibitor was incubated with the metallo-β-lactamase enzyme and the substrate for 2 hours at 25° C. […] The IC50 value was determined from semi-logarithmic plots of enzyme inhibition versus inhibitor concentration, with a curve generated using a 4-parameter fit.

NDM-1 = NDM-1 (Klebsiella pneumoniae, UniProt C7C422); assay type: biochemical; details: CCF2-FA substrate, 2 hours at 25° C.
Sequence of NDM-1 (C7C422 whole entry, looked up, species assumed): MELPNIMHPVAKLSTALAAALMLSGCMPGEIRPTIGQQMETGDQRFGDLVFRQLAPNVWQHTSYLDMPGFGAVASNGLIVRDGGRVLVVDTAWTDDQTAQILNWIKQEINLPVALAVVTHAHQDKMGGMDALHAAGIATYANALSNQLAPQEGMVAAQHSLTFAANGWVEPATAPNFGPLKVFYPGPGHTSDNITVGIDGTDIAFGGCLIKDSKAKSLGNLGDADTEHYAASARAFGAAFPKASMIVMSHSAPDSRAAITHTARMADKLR
Protocol: as §2, §3

VIM-1 = VIM-1 (Pseudomonas aeruginosa (strain ATCC 15692 / DSM 22644 / CIP 104116 / JCM 14847 / LMG 12228 / 1C / PRS 101 / PAO1), UniProt A0A0F7KYQ8); assay type: biochemical; details: CCF2-FA substrate, 2 hours at 25° C.
Protocol: as §2, §3

[6] = test system: MB 5890 Trans pFlp-Vim2 plasmid; assay type: cell-based, Pseudomonas aeruginosa; details: OprD+, efflux−
[7] = test system: Pseudomonas aeruginosa MB 5890; experiment: Minimum inhibitory concentrations of sentinel antibiotics (strain quality control); assay type: cell-based; details: OprD+, efflux−, parental strain
[8] = test system: Pseudomonas aeruginosa MB 5919; experiment: as above; assay type: cell-based; details: OprD+, efflux+, parental strain
[9] = test system: MB 5919 Trans pFlp-Vim2 plasmid; assay type: cell-based, Pseudomonas aeruginosa; details: OprD+, efflux+
[10] = test system: MB 5890 Trans IMP1 plasmid (MB 9799); assay type: cell-based, Pseudomonas aeruginosa; details: OprD+, efflux−
[11] = test system: MB 5890 Trans pFlp-Vim1 (MB9862); assay type: cell-based, Pseudomonas aeruginosa; details: OprD+, efflux−
[12] = test system: MB 5919 Trans IMP1 plasmid (MB 9798); assay type: cell-based, Pseudomonas aeruginosa; details: OprD+, efflux+
[13] = test system: MB 5919 Trans pFlp-Vim1 plasmid (MB 9861); assay type: cell-based, Pseudomonas aeruginosa; details: OprD+, efflux+
[14] = C, D serine β-lactamase inhibitor closely related to relebactam, efflux + strain MB9798

Compound | Efflux ratio ([2]; imipenem at 2 μg/mL) | Serratia marcescens (IMP-1) MITC95 [3] | Klebsiella pneumoniae (VIM-1) MITC95 [4] | Escherichia coli (NDM-1) MITC95 [5] | MIC [7] | MIC [8] | further results
(R)-4-(1-(2-aminoethyl)-1H-benzo[d][1,2,3]triazol-4-yl)-N1-(pyrrolidin-3-yl)-3-(2H-tetrazol-5-yl)benzene-1,2-disulfonamide yl)benzene-1,2-disulfonamide [Example 289] | 2.00 | 1.563 µM | 1.563 µM | 0.7813 µM | – | – | P. aeruginosa expressing IMP-1, efflux − (MB9799) MITC95 [1]: 0.7813 µM; P. aeruginosa expressing IMP-1, efflux + (MB9798) MITC95 [2, 14]: 1.563 µM; IC50 (IMP-1): 1.22 nM; IC50 (NDM-1): 0.249 nM; IC50 (VIM-1): 0.104 nM
CC(C)(O/N=C(\C(=O)N[C@@H]1C(=O)N2C(C(=O)[O-])=C(C[n+]3ccccc3)CS[C@H]12)c1csc(N)n1)C(=O)O [CAZ, ceftazidime] | – | – | – | – | 0.5 µg/mL (≈ 0.915 µM) | 1 µg/mL (≈ 1.83 µM) | MIC [6]: 64 µg/mL (≈ 117 µM)
C[C@@H](O)[C@H]1C(=O)N2C(C(=O)O)=C(S[C@@H]3CN[C@H](C(=O)N(C)C)C3)[C@H](C)[C@H]12 [Meropenem, meropenem] | – | – | – | – | 0.5 µg/mL (≈ 1.3 µM) | 2 µg/mL (≈ 5.22 µM) | MIC [6]: 32 µg/mL (≈ 83.4 µM); MIC [9]: >64 µg/mL; MIC [10]: 64 µg/mL (≈ 167 µM); MIC [11]: 64 µg/mL (≈ 167 µM); MIC [12]: >64 µg/mL; MIC [13]: >64 µg/mL
Cn1nc2cccc(-c3ccc(S(=O)(=O)N[C@@H]4CCNC4)c(S(N)(=O)=O)c3-c3nn[nH]n3)c2n1 [Example 281, (R)-4-(2-methyl-2H-benzo[d][1,2,3]triazol-4-yl)-N1-(pyrrolidin-3-yl)-3-(2H-tetrazol-5-yl)benzene-1,2-disulfonamide] | 2.00 | 1.563 µM | 3.125 µM | 1.563 µM | – | – | –
NCCNS(=O)(=O)c1ccc(C2=CC(N)CCC2)c(-c2nn[nH]n2)c1S(N)(=O)=O (stereo not drawn) [Example 338, 5′-Amino-N4-(2-aminoethyl)-2-(2H-tetrazol-5-yl)-2′,3′,4′,5′-tetrahydro-[1,1′-biphenyl]-3,4-disulfonamide] | 4.00 | 1.563 µM | 1.563 µM | 1.563 µM | – | – | –
NC[C@H](O)CNS(=O)(=O)c1ccc(-c2ccnc(N)c2)c(-c2nn[nH]n2)c1S(N)(=O)=O [Example 417, (S)-N^1-(3-amino-2-hydroxypropyl)-4-(2-aminopyridin-4-yl)-3-(2H-tetrazol-5-yl)benzene-1,2-disulfonamide] | – | – | – | – | – | – | Concentration of metallo-β-lactamase inhibitor which restores susceptibility of efflux − (MB9799) strain to imipenem ([1]; imipenem at 2 μg/mL, in the presence of a class A): 0.7813; Concentration of metallo-β-lactamase inhibitor which restores susceptibility of efflux + (MB9798) strain to imipenem ([2]; imipenem at 2 μg/mL, in the presence of a class A, C, D serine β-lactamase inhibitor closely related to relebactam, efflux + strain MB9798): 1.563; IC50 (IMP-1): 1.28 nM; IC50 (NDM-1): 0.385 nM
NCCNS(=O)(=O)c1ccc(-c2cccc(SC[C@H](O)CN)c2)c(-c2nn[nH]n2)c1S(N)(=O)=O [Example 356, (R)-3′-((3-amino-2-hydroxypropyl)thio)-N4-(2-aminoethyl)-2-(2H-tetrazol-5-yl)-[1,1′-biphenyl]-3,4-disulfonamide] | 2.00 | 0.7813 µM | 0.7813 µM | 0.7813 µM | – | – | –
Nc1nc2c(-c3ccc(S(=O)(=O)N4CCN(CCO)CC4)c(S(N)(=O)=O)c3-c3nnn[nH]3)cccc2s1.O=C(O)C(F)(F)F [Example 92, 4-((4-(2-aminobenzo[d]thiazol-4-yl)-2-sulfamoyl-3-(1H-tetrazol-5-yl)phenyl)sulfonyl)-1-(2-hydroxyethyl) piperazin-1-ium 2,2,2-trifluoroacetate] | 4.00 | – | – | – | – | – | P. aeruginosa expressing IMP-1, efflux − (MB9799) MITC95 [1]: 6.25 µM; P. aeruginosa expressing IMP-1, efflux + (MB9798) MITC95 [2, 14]: 25 µM; Escherichia coli expressing NDM-1 (CLB30016) MITC95 [5]: 12.5 µM; IC50 (IMP-1; fluorescence assay): 1.17 nM; IC50 (NDM-1; fluorescence assay): 0.609 nM; IC50 (VIM-1; fluorescence assay): 1.41 nM
NCCNS(=O)(=O)c1ccc(-c2cccc3[nH]c(CN)nc23)c(-c2nn[nH]n2)c1S(N)(=O)=O [Example 343] | 1.00 | 0.7813 µM | 0.7813 µM | 0.7813 µM | – | – | –
C[N+]1(CCN)CC[C@@H](NS(=O)(=O)c2ccc(-c3cccc4[nH]c(N)nc34)c(-c3nn[nH]n3)c2S(N)(=O)=O)C1 (stereo partly drawn) [Example 248, (3R)-3-{[4-(2-amino-1H-1,3-benzodiazol-4-yl)-2-sulfamoyl-3-(2H-1,2,3,4-tetrazol-5-yl)benzene]sulfonamido}-1-(2-aminoethyl)-1-methylpyrrolidin-1-ium; methaneperoxoate] | – | – | 0.7813 µM | – | – | – | P. aeruginosa expressing IMP-1, efflux − (MB9799) MITC95 [1]: 0.7813 µM; P. aeruginosa expressing IMP-1, efflux + (MB9798) MITC95 [2, 14]: 0.7813 µM
C[C@@H](O)[C@H]1C(=O)N2C(C(=O)O)=C(SCCN=CN)C[C@H]12 [Imipenem, imipenem] | – | – | – | – | 2 µg/mL (≈ 6.68 µM) | 4 µg/mL (≈ 13.4 µM) | MIC [6]: 32 µg/mL (≈ 107 µM); MIC [9]: >64 µg/mL; MIC [10]: 32 µg/mL (≈ 107 µM); MIC [11]: 64 µg/mL (≈ 214 µM); MIC [12]: 64 µg/mL (≈ 214 µM); MIC [13]: >64 µg/mL
NC[C@@H](CO)NS(=O)(=O)c1ccc(-c2cccc(N)n2)c(-c2nn[nH]n2)c1S(N)(=O)=O [Example 382, (S)—N1-(1-amino-3-hydroxypropan-2-yl)-4-(6-aminopyridin-2-yl)-3-(2H-tetrazol-5-yl)benzene-1,2-disulfonamide] | 1.00 | 1.563 µM | 3.125 µM | 1.563 µM | – | – | –
CCN1CCN(C(=O)N[C@@H](C(=O)N[C@@H]2C(=O)N3[C@@H]2SC(C)(C)[C@@H]3C(=O)O)c2ccccc2)C(=O)C1=O [Pipercillin, piperacillin] | – | – | – | – | 1 µg/mL (≈ 1.93 µM) | 2 µg/mL (≈ 3.86 µM) | MIC [10]: 4 µg/mL (≈ 7.73 µM); MIC [12]: 4 µg/mL (≈ 7.73 µM)
